Where two headings read alike, the source gives them in different places.
Columns and labels:
Type in all cases: biochemical
[1] = target: T1, PDE8A (Homo sapiens, UniProt Q9Y233); assay: Inhibition of recombinant PDE8A activity (32P-phosphate release from 32P-cAMP); settings: for Fold Difference: IC50 for PDE8 versus IC50 for target family; for IC50: read-out: IC50 for PDE8
T1 construct: made in house; host or cells: yeast strain BJ2-54 lacking endogenous PDE activity; plasmid W48-2ADH2 (ATCC 98552); crude yeast extract
Description: (§1) Frozen cell pellets (0.06 ml) were thawed and suspended in 0.2 ml lysis buffer containing 100 mM MOPS, pH 8.0, 200 mM NaCl, 2 μM […], 2 mM dithiothreitol, and 10 μg/ml each protease inhibitors pepstatin, leupeptin, and aprotinin. Approximately 0.2 ml of 0.5 mm glass beads were added to the cells which were then lysed with four 30-second cycles of vortexing. The lysate was aspirated and the beads were washed twice with 0.3 ml lysis buffer. The lysate was combined with the washes to generate the yeast extract. In some experiments the lysate was fractionated by centrifugation at 105,000×g for thirty minutes.
(§2) PDE activity was assayed by detection of ^32P-phosphate released from ^32P-cAMP or ^32P-cGMP as described previously [Loughney et al., J. Biol. Chem. 271:796-806 (1996)]. The yeast extract was diluted in 0.5×lysis buffer also containing 0.5 mg/ml bovine serum albumin. Twenty μl of the yeast extract, or diluted yeast extract, was assayed in a 100 μl reaction volume which included an additional 50 mM Tris-HCl (pH 8.0), 5 mM MgCl2 1 μM Zn SO2, and 0.1 mg/ml bovine serum albumin. Protein concentration was assayed by the method of Bradford.

[2] = target: PDE5 (Homo sapiens, UniProt O76074); assay: IC50 of isozyme-selective inhibitor for its target family PDE5; settings: Target PDE Family PDE5
[3] = target: T1, PDE8A; assay: Kinetic analysis of PDE8A hydrolysis of cyclic nucleotide substrates in yeast extract; settings: estimated, substrate of PDE8A, yeast lysate
Description: as §1
as §2, with “The” for “PDE activity was assayed by detection of ^32P-phosphate released from ^32P-cAMP or ^32P-cGMP as described previously [Loughney et al., J. Biol. Chem. 271:796-806 (1996)]. The”

[4] = target: PDE2 (Homo sapiens, UniProt O00408); assay: IC50 of isozyme-selective inhibitor for its target family PDE2; settings: Target PDE Family PDE2
[5] = tested on: known human PDEs (Non-selective); assay: IC50 of non-selective inhibitor for known PDEs; settings: read-out: IC50 for Target Family
[6] = tested on: PDE3; assay: IC50 of isozyme-selective inhibitor for its target family PDE3; settings: Target PDE Family PDE3
[7] = cAMP concentration of 60 nM, low Km form only, yeast extract

T1 sequence (Q9Y233 290-1055 limits assumed): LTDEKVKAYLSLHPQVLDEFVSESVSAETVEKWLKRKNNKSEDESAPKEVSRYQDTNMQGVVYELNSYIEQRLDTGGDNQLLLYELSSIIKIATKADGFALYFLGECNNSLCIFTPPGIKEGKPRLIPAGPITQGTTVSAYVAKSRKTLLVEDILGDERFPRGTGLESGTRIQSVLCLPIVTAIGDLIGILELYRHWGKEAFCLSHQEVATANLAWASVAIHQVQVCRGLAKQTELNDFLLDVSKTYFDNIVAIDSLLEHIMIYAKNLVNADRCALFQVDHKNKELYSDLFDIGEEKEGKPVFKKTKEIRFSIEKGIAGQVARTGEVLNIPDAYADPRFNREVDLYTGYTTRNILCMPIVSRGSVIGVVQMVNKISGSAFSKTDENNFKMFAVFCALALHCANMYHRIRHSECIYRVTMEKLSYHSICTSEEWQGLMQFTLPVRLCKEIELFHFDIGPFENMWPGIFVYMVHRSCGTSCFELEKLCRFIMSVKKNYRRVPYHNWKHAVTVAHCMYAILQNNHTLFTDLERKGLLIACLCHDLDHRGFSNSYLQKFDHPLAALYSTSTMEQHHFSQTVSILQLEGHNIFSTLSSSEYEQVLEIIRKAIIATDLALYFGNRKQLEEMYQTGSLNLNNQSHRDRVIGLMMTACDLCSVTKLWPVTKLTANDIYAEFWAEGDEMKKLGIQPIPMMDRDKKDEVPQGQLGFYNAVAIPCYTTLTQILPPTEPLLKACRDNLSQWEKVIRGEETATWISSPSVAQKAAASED
PDE2, sequence (O00408 whole entry): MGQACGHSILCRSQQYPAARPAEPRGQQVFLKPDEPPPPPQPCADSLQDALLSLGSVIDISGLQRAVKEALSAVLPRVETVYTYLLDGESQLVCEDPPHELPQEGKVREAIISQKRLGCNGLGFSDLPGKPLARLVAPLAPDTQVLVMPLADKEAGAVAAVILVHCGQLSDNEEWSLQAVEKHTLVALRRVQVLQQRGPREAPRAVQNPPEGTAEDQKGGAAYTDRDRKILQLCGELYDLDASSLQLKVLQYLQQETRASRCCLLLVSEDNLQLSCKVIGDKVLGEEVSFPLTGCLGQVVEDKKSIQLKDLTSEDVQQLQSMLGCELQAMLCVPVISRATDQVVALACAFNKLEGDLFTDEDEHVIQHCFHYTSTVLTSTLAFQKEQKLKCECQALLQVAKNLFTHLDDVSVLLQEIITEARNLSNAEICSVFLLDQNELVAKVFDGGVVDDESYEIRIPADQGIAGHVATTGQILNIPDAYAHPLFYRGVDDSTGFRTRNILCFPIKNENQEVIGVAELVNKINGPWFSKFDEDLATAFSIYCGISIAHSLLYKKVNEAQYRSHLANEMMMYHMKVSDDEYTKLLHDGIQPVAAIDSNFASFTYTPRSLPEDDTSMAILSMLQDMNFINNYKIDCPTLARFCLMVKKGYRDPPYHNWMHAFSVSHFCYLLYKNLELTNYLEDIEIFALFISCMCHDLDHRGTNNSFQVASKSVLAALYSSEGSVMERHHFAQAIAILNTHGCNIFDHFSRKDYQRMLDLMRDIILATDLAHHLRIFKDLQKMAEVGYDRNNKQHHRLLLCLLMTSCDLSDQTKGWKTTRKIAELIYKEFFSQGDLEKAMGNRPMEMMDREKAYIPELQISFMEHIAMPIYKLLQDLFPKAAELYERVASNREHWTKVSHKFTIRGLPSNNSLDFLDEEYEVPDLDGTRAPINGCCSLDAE

CCCOc1ccc(NS(C)(=O)=O)cc1-c1nc2c(c(C)nn2C)c(=O)[nH]1 [DMPPO]
Fold Difference [1]: 66
IC50 [1, 7]: 1.1 µM
IC50 [2]: 0.016 µM

Nc1nc2c(ncn2[C@@H]2O[C@@H]3COP(=O)(O)O[C@H]3[C@H]2O)c(=O)[nH]1 [cGMP]
Km ([3]; read-out: Km, high Km form): 300 µM
Km ([3]; read-out: Km, low Km form): 3 µM

CCCCCCC(C(C)O)n1cnc2c(N)ncnc21 (stereo not drawn) [EHNA, erythro-9-(2-hydroxy-3-nonyl)adenine]
Fold Difference [1]: 31
IC50 [1]: 65 µM
IC50 [4]: 2 µM

CC(C)Cn1c(=O)n(C)c(=O)c2[nH]cnc21 [IBMX, isomethyl butyl xanthine]
Fold Difference [1]: 0.12-4.6
IC50 [1, 7]: 4.6 µM
IC50 [5]: 1 to 40 µM

CN(C(=O)CCCOc1ccc2[nH]c(=O)ccc2c1)C1CCCCC1 [Cilostamide]
Fold Difference [1]: 750
IC50 [1]: 12 µM
IC50 [6]: 0.02 µM
